Each structure is given as a SMILES string.

Data on one compound can be found in patent publication US20250213594A1 (priority 2023, published 2025).

Data set [1] is classed as in vivo, human. Conditions: 1 mg QD oral 28 days, n = 10. As to the method:
The study in the present disclosure was conducted in accordance with Therapeutic Goods Administration and Human Research Ethics Committee guidelines. The study was conducted at the Phase 1 Unit of Nucleus Network Pty Ltd in Brisbane, Australia from October 2021 to March 2022. The entire study was conducted in accordance with the provisions of the Declaration of Helsinki and Good Clinical Practice guidelines, and the protocol was registered at www.clinicaltrials.gov (NCT04945226; registration date: Jun. 30, 2021). Healthy men aged 18 to 55 years with a body mass index (BMI) of 18 to 32 kg/m^2 participated in this study. Potential subjects completed a signed informed consent form and were subjected to screening prior to the study. A total of 40 healthy, non-smoking adult men were included in the study across three cohorts (FIG. 1).
Each subject was followed up until day 43. In contrast, cohort 2 was divided into two groups.
Cohort 2 was divided into two groups. […]
The clinical status and vital signs of the subjects were evaluated before and after participation in the study to investigate adverse effects. Hematological parameters such as white blood cell, red blood cell, hemoglobin, hematocrit, and platelet counts were analyzed. Adverse effects (AEs) were recorded in terms of symptoms and signs, duration, intensity, relationship to study drug, action taken, outcome, and seriousness. […]

The test system of a further data set is DHT. As to the kind of experiment: Phase 1 clinical study: plasma DHT as pharmacodynamic marker. Format: in vivo, human.
For data set [2] the following is noted: male, human, in vivo, po, 1 mg.
Description: A total of 40 non-smoking, healthy adult males were recruited for this study. Subjects who passed the screening process and were deemed eligible for the study were assigned to three groups. […] Each subject was followed up until day 43. In contrast, cohort 2 was divided into two groups. […] The subjects returned to the hospital according to a pre-determined schedule for 43 or 35 days and were assessed for tolerability, PK, and PD. […] In this study, the plasma drug concentration was analyzed on day 28 to investigate the comparative effect.
Whole blood was collected and centrifuged to obtain plasma. […] Maximum plasma concentration (Cmax), time to reach Cmax (Tmax), areas under the curve for 24 and 672 hours after dosing (AUC0-24, and AUC0-672), areas under the curve from time 0 to the last quantified concentration and to infinity (AUC0-t, and AUC0-inf), total plasma clearance, apparent total volume of distribution based on steady state or terminal phase, and elimination half-life were assessed.
PK analysis was based on a non-compartmental analysis approach and was performed in the PK population (patients who received at least one dose and had evaluable PK data). PK parameters were calculated using plasma concentrations and actual blood sampling times using Phoenix WinNonlin v. 8.3 (Certara, Princeton, NJ, USA) and summarized.
The nature of another data set: clinical. The following applies: male, human, in vivo, po.
On the set-up of data set [3]: species or system human. Conditions: model estimate.
Description: PK and PD modeling were performed to determine the therapeutic dose in AGA. A two-compartment PK model using observed clinical study data was adopted. […] The effective dose for additional clinical studies was estimated using established PK/PD models. All PK/PD modeling and simulations were performed using Phoenix WinNonlin, v.8.3.
For data set [4] the following is noted: 1 mg finasteride tablets, previous clinical studies; cited from earlier work.

As for `CC(C)(C)NC(=O)[C@H]1CC[C@H]2[C@@H]3CC[C@H]4NC(=O)C=C[C@]4(C)[C@H]3CC[C@]12C` [Finasteride], the COVID-19 in data set [1] is on record as 0 n (%). In addition, the “baseline-corrected median DHT values (%) at all time points” value with DHT (1 mg oral QD 28 days) is recorded as −74.04 to 3.58%. In addition, in the data set on DHT (all concentrations of IVL3001, oral 1 mg tablets), the “effect on DHT” value is “inhibitory effect”. Also, the “mean elimination half-life (t1/2el)” value in data set [2] turned out to be 6.9 h. In “clinical” (1 mg, mean elimination half-life (t1/2el)), this compound had a half-life of 384 min. Moreover, in the data set “clinical” (in vivo mean half-life), the half-life is approximately 384 min. For the same compound, in data set [3], the “tvCL2 (clearance between central compartment and peripheral compartment)” value is recorded as 18.9 L/h; the “tvCL (clearance from central compartment)” value is 18.4 L/h. Further, in data set [4], the bioavailability result is given as “about 65%”.

The half-life is how long it takes for the measured level to halve. The low end stands for fast loss, the high end for slow loss.
